Results on eight compounds are retold here after patent publication US6482921B1, “Uridyl peptide antibiotic (UPA) derivatives, their synthesis and use” (Essential Therapeutics, Inc., priority 1999, dated 2002).

In brackets after ≈: the same amount, converted by molar mass.

One data set deals with Escherichia Coli MC 4100. The data set can be described thus: MIC broth microdilution, E. coli MC 4100 (wild type). The data set is classed as cell-based. The following applies: for MIC (μg/ml) Broth microdilution: E. coli MC 4100. Background: In broth dilution the organism is exposed to a series of concentrations in liquid medium.
Data set [1] has as its system Staphylococcus aureus ATCC 29213. As to the kind of experiment: MIC broth microdilution, S. aureus ATCC 29213 (wild type). The data set is classed as cell-based. The following applies: for MIC (μg/ml) Broth microdilution: S. aureus ATCC 29213.
The next data set relates to bacteria. The data set can be described thus: Antibacterial activity, stated in words. The data set is classed as cell-based.
Data set [2] has as its system Pseudomonas aeruginosa PAM 1135. As to the kind of experiment: MIC broth microdilution, P. aeruginosa PAM 1135 (high level UPA resistance). It is filed as cell-based. As to conditions: for MIC (μg/ml) Broth microdilution: P. aeruginosa PAM 1135 UPA1^r.
Data set [3] relates to Pseudomonas aeruginosa PAM 1154. As to the kind of experiment: MIC broth microdilution, P. aeruginosa PAM 1154 (OprM::Hg). As to conditions: for MIC (μg/ml) Broth microdilution: P. aeruginosa PAM 1154 OprM::Hg. The data set is classed as cell-based.
The subject of data set [4] is Staphylococcus aureus 8325-4. As to the kind of experiment: MIC broth microdilution, S. aureus 8325-4 (wild type). It is filed as cell-based. The following applies: for MIC (μg/ml) Broth microdilution: S. aureus 8325-4.
Data set [5] concerns Escherichia Coli MC 4100 AcrAB UPA3r. The data set can be described thus: MIC broth microdilution, E. coli MC 4100 AcrAB UPA3r (ΔAcrAB, UPA resistant). The following applies: for MIC (μg/ml) Broth microdilution: E. coli AcrAB UPA3^r. The data set is classed as cell-based.
The test system of data set [6] is Escherichia Coli MC 4100 AcrAB. As to the kind of experiment: MIC broth microdilution, E. coli MC 4100 AcrAB (ΔAcrAB). The data set is classed as cell-based. As to conditions: for MIC (μg/ml) Broth microdilution: E. coli AcrAB.
Data set [7] has as its system Pseudomonas aeruginosa PAM 1020. As to the kind of experiment: MIC broth microdilution, P. aeruginosa PAM 1020 (wild type). It is filed as cell-based. As to conditions: for MIC (μg/ml) Broth microdilution: P. aeruginosa PAM 1020.
Data set [8] deals with Mycobacterium smegmatis ATCC 19420. As to the kind of experiment: MIC broth microdilution, M. smegmatis ATCC 19420. The following applies: 72 hours at 35° C., CAMHB.
Data set [9] has as its system Mycobacterium tuberculosis H37Rv. The data set can be described thus: MIC agar dilution, M. tuberculosis H37Rv. The data set is classed as cell-based. Background: In agar dilution the substance is mixed into plates at graded concentrations.
Data set [10] deals with Pasteurella multocida pm002. The data set can be described thus: MIC broth microdilution, P. multocida pm002 (wild type). It is filed as cell-based.
The subject of data set [11] is Pseudomonas aeruginosa PAM 1323. As to the kind of experiment: MIC broth microdilution, P. aeruginosa PAM 1323 (medium level UPA resistance). The data set is classed as cell-based.
Data set [12] concerns Mycobacterium fortuitum ATCC 6841. The data set can be described thus: MIC broth microdilution, M. fortuitum ATCC 6841. As to conditions: 72 hours at 35° C., CAMHB.
The test system of data set [13] is Mycobacterium tuberculosis TN913. As to the kind of experiment: MIC agar dilution, M. tuberculosis TN913. The data set is classed as cell-based.
The target in a further data set is E. coli translocase (Escherichia coli, UniProt P0A6W3).
Data set [14] concerns the target bacterial translocase I (phospho-N-acetylmuramyl-pentapeptide translocase) (Escherichia coli, UniProt P0A6W3). As to conditions: background statement; cited from earlier work.
The test system of data set [15] is mammalian enzymes that catalyze the formation of lipid-linked saccharides. The following applies: background statement; cited from earlier work.

Chain of E. coli translocase (P0A6W3 whole entry): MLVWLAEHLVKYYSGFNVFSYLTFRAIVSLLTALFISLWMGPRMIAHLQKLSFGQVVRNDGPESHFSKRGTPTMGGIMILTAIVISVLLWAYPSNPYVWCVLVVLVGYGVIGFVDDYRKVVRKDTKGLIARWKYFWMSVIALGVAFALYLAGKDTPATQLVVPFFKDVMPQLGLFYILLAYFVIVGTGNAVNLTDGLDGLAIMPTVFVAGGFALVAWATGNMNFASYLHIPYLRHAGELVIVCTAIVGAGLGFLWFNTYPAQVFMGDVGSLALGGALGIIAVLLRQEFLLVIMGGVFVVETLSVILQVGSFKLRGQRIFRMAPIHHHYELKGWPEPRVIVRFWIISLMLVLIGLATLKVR
Chain of bacterial translocase I (phospho-N-acetylmuramyl-pentapeptide translocase) (P0A6W3 whole entry): as above

On to `C[C@H](N)C(=O)N(C)[C@@H](C)[C@H](NC(=O)[C@H](C)NC(=O)N[C@@H](Cc1c[nH]c2ccccc12)C(=O)O)C(=O)NC[C@H]1C[C@@H](O)[C@H](n2ccc(=O)[nH]c2=O)O1` [Compound 34], for which the MIC with Escherichia Coli MC 4100 (Escherichia coli, COLIMC4100, read-out: MIC (μg/ml) Broth microdilution) is 128 µg/mL (≈ 179 µM); in data set [1] (Staphylococcus aureus, ATCC29213, read-out: MIC (μg/ml) Broth microdilution) it was 512 µg/mL (≈ 717 µM); in [2] (Pseudomonas aeruginosa, PAM1135, read-out: MIC (μg/ml) Broth microdilution), greater than 512 µg/mL; in [3] (Pseudomonas aeruginosa, PAM1154, read-out: MIC (μg/ml) Broth microdilution), 4 µg/mL (≈ 5.6 µM); in data set [4] (Staphylococcus aureus, 83254, read-out: MIC (μg/ml) Broth microdilution), greater than 512 µg/mL; in data set [5] (Escherichia coli, read-out: MIC (μg/ml) Broth microdilution) it was 16 µg/mL (≈ 22.4 µM). Moreover, the MIC in data set [6] (Escherichia coli, COLIMC4100ACRAB, read-out: MIC (μg/ml) Broth microdilution) turned out to be 2 µg/mL (≈ 2.8 µM); in data set [7] (Pseudomonas aeruginosa, PAM1020, read-out: MIC (μg/ml) Broth microdilution), 64 µg/mL (≈ 89.7 µM). Further, in the data set with bacteria, the “antibacterial / biological activity (in words)” value is on record as “comparable biological activity to dihydropacidamycin D”.

In the case of `CC(N)C(=O)N(C)C(C)C(NC(=O)C(Cc1ccc(-c2ccccc2)cc1)NC(=O)NC(Cc1c[nH]c2ccccc12)C(=O)O)C(=O)NCC1CC(O)C(n2ccc(=O)[nH]c2=O)O1` [Compound 155, 1-[5′-[(2S,3S)-N^3-L-Alanyl-N^2-[N-[[(1S)-1-carboxy-2-indol-3-ylethyl)carbamoyl]-L-4-biphenylalanyl]-N^3-methyl-2,3-diaminobutyramidol-3′,5′-dideoxy-α-L-arabinofuranosyl]uracil], the “MIC (μg/ml) Broth microdilution” value is 512 µg/mL (≈ 591 µM) in the data set on Escherichia Coli MC 4100; greater than 512 µg/mL in data set [1]; 32 µg/mL (≈ 37 µM) in [10]; 512 µg/mL (≈ 591 µM) in [2]; 64 µg/mL (≈ 73.9 µM) in data set [3]; 256 µg/mL (≈ 296 µM) in data set [11]. The “MIC (μg/ml) Broth microdilution” value was determined as 512 µg/mL (≈ 591 µM) in [4], 512 µg/mL (≈ 591 µM) in [5], 8 µg/mL (≈ 9.24 µM) in data set [6] and 256 µg/mL (≈ 296 µM) in [7]. In [8], the “MIC Broth microdilution M. smegmatis ATCC19420” value amounted to 4 µg/mL (≈ 4.62 µM). Also, the “MIC H37RV (SENSITIVE)” value in data set [9] came to 10 µg/mL (≈ 11.5 µM). In addition, in [12], the “MIC Broth microdilution M. fortuitum ATCC 6841” value amounted to 32 µg/mL (≈ 37 µM). In data set [13], the “MIC TN913 (SENSITIVE)” value amounted to 10 µg/mL (≈ 11.5 µM).

For `CC(N)C(=O)N(C)C(C)C(NC(=O)C(Cc1ccc(F)cc1)NC(=O)NC(Cc1c[nH]c2ccccc12)C(=O)O)C(=O)NCC1CC(O)C(n2ccc(=O)[nH]c2=O)O1` [Compound 158, 1-[5′-[(2S,3S)-N^3-L-Alanyl-N^2-[N-[[(1S)-1-carboxy-2-indol-3-ylethyl]carbamoyl]-L-4-fluorophenylalanyl]-N^3-methyl-2,3-diaminobutyramidol-3′,5′-dideoxy-α-L-arabinofuranosyl]uracil], the “MIC (μg/ml) Broth microdilution” value with Escherichia Coli MC 4100 worked out at 512 µg/mL (≈ 634 µM); in data set [1], 512 µg/mL (≈ 634 µM); in data set [10], 64 µg/mL (≈ 79.2 µM); in [2] it was 256 µg/mL (≈ 317 µM); in data set [3] it was 8 µg/mL (≈ 9.9 µM); in [11], 256 µg/mL (≈ 317 µM). Further, the “MIC (μg/ml) Broth microdilution” value is 512 µg/mL (≈ 634 µM) in data set [4], 32 µg/mL (≈ 39.6 µM) in [5], less than 1 µg/mL in [6] and 64 µg/mL (≈ 79.2 µM) in [7]. The “MIC Broth microdilution M. smegmatis ATCC19420” value in data set [8] amounted to 1 µg/mL (≈ 1.24 µM). For the same compound, the “MIC H37RV (SENSITIVE)” value in data set [9] was determined as 10 µg/mL (≈ 12.4 µM). The “MIC Broth microdilution M. fortuitum ATCC 6841” value in [12] amounted to 32 µg/mL (≈ 39.6 µM). For the same compound, the “MIC TN913 (SENSITIVE)” value in data set [13] is 10 µg/mL (≈ 12.4 µM).

With `CC(C)CC(N)C(=O)N(C)C(C)C(NC(=O)C(Cc1ccccc1)NC(=O)NC(Cc1c[nH]c2ccccc12)C(=O)O)C(=O)NCC1CC(O)C(n2ccc(=O)[nH]c2=O)O1` [Compound 159, 1-[5′-[(2S,3S)-N^2-[N-[[(1S)-1-Carboxy-2-indol-3-ylethyl]carbamoyl]-L-phenylalanyl]l-N^3-L-leucyl-N^3-methyl-2,3-diaminobutyramido]-3′,5′-dideoxy-α-L-arabinofuranosyl]uracil], the “MIC (μg/ml) Broth microdilution” value against Escherichia Coli MC 4100 is greater than 512 µg/mL; in data set [1] it was greater than 512 µg/mL; in [10], 128 µg/mL (≈ 154 µM); in data set [2], 256 µg/mL (≈ 308 µM); in data set [3] it was 8 µg/mL (≈ 9.62 µM); in [11] it was 256 µg/mL (≈ 308 µM). Also, the “MIC (μg/ml) Broth microdilution” value in data set [4] was greater than 512 µg/mL; in data set [5], 64 µg/mL (≈ 76.9 µM); in data set [6], 2 µg/mL (≈ 2.4 µM); in data set [7], 128 µg/mL (≈ 154 µM). The “MIC Broth microdilution M. smegmatis ATCC19420” value in data set [8] was 8 µg/mL (≈ 9.62 µM). Besides, in data set [9], the “MIC H37RV (SENSITIVE)” value came to 30 µg/mL (≈ 36.1 µM). Also, the “MIC Broth microdilution M. fortuitum ATCC 6841” value in [12] worked out at 64 µg/mL (≈ 76.9 µM). In [13], the “MIC TN913 (SENSITIVE)” value came out at 30 µg/mL (≈ 36.1 µM).

As to Dihydropacidamycin D [Compound 3], the “MIC (μg/ml) Broth microdilution” value was 128 µg/mL with Escherichia Coli MC 4100; 512 µg/mL in data set [1]; greater than 512 µg/mL in data set [2]; 8 µg/mL in data set [3]; 256 µg/mL in [4]; 32 µg/mL in data set [5]. In addition, the “MIC (μg/ml) Broth microdilution” value in [6] amounted to 2 µg/mL; in data set [7], 16 µg/mL. Moreover, the “antibacterial / biological activity (in words)” value in the data set with bacteria is given as “displayed the antibacterial spectrum of pacidamycin D”. In addition, on E. coli translocase, the “inhibition of E. coli translocase (in words)” value is on record as “inhibitor of E. coli translocase”.

For Tetrahydropacidamycin D [Compound 4], the “MIC (μg/ml) Broth microdilution” value was 256 µg/mL in the data set with Escherichia Coli MC 4100; greater than 512 µg/mL in data set [1]; 512 µg/mL in data set [2]; 4 µg/mL in data set [3]; greater than 512 µg/mL in data set [4]; 64 µg/mL in [5]. Besides, the “MIC (μg/ml) Broth microdilution” value was found to be 2 µg/mL in data set [6] and 8 µg/mL in data set [7]. In addition, in the data set on bacteria, the “antibacterial / biological activity (in words)” value is recorded as “exhibited antibacterial activity”. Besides, on E. coli translocase (species of enzyme not given), the “inhibition of translocase I (in words)” value is “inhibited translocase I”.

For amphomycin [reference compound], the “MIC (μg/ml) Broth microdilution” value was 256 µg/mL in the data set with Escherichia Coli MC 4100; greater than 512 µg/mL in data set [1]; 512 µg/mL in data set [2]; 4 µg/mL in [3]; greater than 512 µg/mL in data set [4]; 16 µg/mL in [5]. For the same compound, the “MIC (μg/ml) Broth microdilution” value in [6] turned out to be 4 µg/mL; in data set [7], 64 µg/mL. Also, in data set [14], the “translocase inhibition (in words)” value is listed as “translocase inhibitors”. Moreover, the “action on mammalian enzymes / lipid-linked saccharide formation (in words)” value in [15] is “also target mammalian enzymes”.

In the case of tunicamycin, the “translocase inhibition (in words)” value in data set [14] is “translocase inhibitors”. In data set [15], the “action on mammalian enzymes / lipid-linked saccharide formation (in words)” value is reported as “also target mammalian enzymes”.
